Data: US8431561B2 (priority 2004, dated 2013)
Entries after “also recorded” stand apart in the source; their conditions may differ. Where two headings read alike, the source gives them in different places.

Tests used:
[1] = target: apoenzyme of methylmalonyl-CoA mutase (Propionibacterium freudenreichii subsp. shermanii, UniProt P11653); details: cited from earlier work
[2] = test system: VASP phosphorylation in rat C6 glioma cells; format: cell-based
[3] = test system: baby chicks; details: in vivo, cited from earlier work
[4] = test system: transcobalamin II; details: cited from earlier work
[5] = test system: serum albumin
[6] = test system: Chinese hamster cells; format: cell-based
[7] = test system: NO (nitrite plus nitrate), C6 cells; format: cell-based, rat
[8] = test system: Malpighian tubules of D. melanogaster; format: cell-based
[9] = target: methionine synthase apoenzyme (Homo sapiens, UniProt Q99707); details: cited from earlier work
methionine synthase apoenzyme, sequence (Q99707 whole entry): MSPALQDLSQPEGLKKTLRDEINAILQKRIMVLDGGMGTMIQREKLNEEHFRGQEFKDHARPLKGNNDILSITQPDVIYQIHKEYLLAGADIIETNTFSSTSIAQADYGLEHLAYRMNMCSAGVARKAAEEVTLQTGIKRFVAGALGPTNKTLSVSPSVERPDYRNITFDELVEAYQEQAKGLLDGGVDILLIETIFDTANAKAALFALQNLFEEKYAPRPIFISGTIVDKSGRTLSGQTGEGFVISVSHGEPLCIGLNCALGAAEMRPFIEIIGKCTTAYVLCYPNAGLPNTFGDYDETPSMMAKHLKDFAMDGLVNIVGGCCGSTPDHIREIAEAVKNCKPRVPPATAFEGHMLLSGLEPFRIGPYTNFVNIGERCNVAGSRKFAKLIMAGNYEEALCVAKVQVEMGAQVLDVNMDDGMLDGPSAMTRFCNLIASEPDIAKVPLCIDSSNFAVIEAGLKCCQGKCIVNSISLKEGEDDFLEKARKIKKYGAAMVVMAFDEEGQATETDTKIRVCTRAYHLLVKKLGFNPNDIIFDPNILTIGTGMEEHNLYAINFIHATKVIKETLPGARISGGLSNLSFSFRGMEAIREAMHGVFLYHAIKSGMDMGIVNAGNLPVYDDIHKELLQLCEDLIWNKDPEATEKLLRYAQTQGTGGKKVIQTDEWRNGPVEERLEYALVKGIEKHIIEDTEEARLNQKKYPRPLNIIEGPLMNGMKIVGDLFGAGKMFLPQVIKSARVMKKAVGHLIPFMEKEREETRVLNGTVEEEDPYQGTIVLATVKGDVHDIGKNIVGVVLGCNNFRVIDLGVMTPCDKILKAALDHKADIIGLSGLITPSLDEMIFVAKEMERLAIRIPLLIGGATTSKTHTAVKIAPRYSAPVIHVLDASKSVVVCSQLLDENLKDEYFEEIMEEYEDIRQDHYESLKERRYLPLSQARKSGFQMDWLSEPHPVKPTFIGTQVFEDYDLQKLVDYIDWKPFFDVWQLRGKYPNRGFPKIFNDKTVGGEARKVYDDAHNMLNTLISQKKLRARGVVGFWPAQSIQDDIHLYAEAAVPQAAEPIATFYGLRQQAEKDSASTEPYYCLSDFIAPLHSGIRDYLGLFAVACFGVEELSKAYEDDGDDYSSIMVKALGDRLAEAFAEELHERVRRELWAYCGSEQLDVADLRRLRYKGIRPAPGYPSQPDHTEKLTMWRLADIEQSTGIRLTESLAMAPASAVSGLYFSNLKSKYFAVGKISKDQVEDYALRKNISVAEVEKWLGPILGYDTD

[10] = target: haptocorrin (Homo sapiens, UniProt P20061); details: cited from earlier work
haptocorrin, sequence (P20061 24-433): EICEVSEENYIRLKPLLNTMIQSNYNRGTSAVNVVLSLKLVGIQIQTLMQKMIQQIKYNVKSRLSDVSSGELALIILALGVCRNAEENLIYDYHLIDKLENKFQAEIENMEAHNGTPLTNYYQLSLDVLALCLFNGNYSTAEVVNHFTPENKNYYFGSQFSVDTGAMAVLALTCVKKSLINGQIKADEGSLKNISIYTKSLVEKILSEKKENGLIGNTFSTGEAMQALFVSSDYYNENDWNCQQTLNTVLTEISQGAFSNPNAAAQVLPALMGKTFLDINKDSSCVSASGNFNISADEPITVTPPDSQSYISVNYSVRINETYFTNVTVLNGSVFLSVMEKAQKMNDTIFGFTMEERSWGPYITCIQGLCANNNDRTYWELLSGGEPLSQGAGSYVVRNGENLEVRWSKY

[11] = test system: NO (nitrite and nitrate) in Malpighian tubule medium; format: cell-based, D. melanogaster
[12] = test system: human monocytes and lymphocytes; details: cited from earlier work
[13] = test system: BHK, CS-54, and C6 cells, human foreskin fibroblasts and HUVECs
[14] = test system: methylmalonyl-CoA mutase; format: cell-based, baby hamster
[15] = test system: Malpighian tubules of D. melanogaster; format: cell-based; remark: listed apart in the source
[16] = test system: mouse leukemic cells; details: cited from earlier work
[17] = test system: methionine synthase; format: cell-based, baby hamster
[18] = rabbit, in vivo, cited from earlier work
[19] = test system: methylmalonyl-CoA mutase; format: biochemical, baby hamster
[20] = test system: D. melanogaster; details: in vivo
[21] = test system: methionine synthase; format: biochemical, baby hamster
[22] = test system: NO (nitrite plus nitrate), CS-54 cells; format: cell-based, rat
[23] = test system: Malpighian tubules of D. melanogaster; details: in vivo
[24] = test system: VASP phosphorylation in CS-54 vascular smooth muscle cells; format: cell-based, rat
[25] = test system: D. melanogaster; details: in vivo; remark: listed apart in the source
[26] = test system: D. melanogaster; details: in vivo; remark: listed apart in the source
[27] = test system: Chinese hamster cells (cytochrome c oxidase); format: cell-based
[28] = pig, in vivo; cited from earlier work
[29] = test system: BHK, CS-54, and C6 cells, human foreskin fibroblasts and HUVECs; details: cited from earlier work
[30] = test system: rats; details: rat, in vivo, sc; cited from earlier work
[31] = human, in vivo, iv; cited from earlier work

apoenzyme of methylmalonyl-CoA mutase, sequence (P11652 2-638): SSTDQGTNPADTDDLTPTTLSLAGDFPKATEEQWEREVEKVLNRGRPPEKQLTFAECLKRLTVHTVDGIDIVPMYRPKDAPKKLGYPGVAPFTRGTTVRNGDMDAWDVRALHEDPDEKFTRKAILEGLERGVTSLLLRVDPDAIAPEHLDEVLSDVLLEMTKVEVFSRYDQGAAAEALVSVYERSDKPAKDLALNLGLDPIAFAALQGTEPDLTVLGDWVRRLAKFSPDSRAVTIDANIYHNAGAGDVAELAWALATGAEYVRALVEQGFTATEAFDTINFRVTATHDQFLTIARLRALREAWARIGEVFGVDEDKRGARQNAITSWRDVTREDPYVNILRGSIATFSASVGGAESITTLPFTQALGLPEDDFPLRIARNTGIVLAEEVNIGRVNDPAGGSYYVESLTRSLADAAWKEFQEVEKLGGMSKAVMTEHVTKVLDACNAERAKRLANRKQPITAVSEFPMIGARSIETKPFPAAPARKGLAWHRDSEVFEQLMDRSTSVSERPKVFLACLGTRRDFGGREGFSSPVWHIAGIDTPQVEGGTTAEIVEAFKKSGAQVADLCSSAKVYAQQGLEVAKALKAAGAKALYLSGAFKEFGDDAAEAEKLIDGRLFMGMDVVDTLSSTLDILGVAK
apoenzyme of methylmalonyl-CoA mutase, sequence (P11653 2-728): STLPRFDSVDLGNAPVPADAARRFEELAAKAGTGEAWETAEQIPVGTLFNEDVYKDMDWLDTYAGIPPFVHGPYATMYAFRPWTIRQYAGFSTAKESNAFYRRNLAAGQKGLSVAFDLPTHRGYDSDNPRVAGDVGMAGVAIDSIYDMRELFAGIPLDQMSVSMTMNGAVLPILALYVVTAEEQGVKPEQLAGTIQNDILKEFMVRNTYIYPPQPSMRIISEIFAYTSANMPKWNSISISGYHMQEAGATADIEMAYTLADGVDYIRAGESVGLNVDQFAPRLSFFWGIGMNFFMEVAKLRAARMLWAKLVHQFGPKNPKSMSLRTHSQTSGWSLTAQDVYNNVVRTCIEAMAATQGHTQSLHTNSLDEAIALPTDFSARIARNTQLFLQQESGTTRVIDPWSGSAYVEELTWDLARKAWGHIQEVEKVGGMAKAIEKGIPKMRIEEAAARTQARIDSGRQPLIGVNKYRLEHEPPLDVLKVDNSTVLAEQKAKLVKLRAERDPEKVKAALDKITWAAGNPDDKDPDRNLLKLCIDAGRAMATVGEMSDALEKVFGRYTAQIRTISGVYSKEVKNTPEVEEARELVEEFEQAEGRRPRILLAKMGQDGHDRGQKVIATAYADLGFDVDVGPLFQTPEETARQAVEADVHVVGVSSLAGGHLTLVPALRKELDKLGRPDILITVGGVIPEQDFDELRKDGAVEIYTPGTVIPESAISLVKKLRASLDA

5′-deoxyadenosyl-cobinamide
restoring function to the apoenzyme of methylmalonyl-CoA mutase [1]: inactive

C/C1=C2/[N-][C@H]([C@H](CC(N)=O)[C@@]2(C)CCC(=O)NC[C@@H](C)O)[C@]2(C)N=C(/C(C)=C3N=C(/C=C4N=C1[C@@H](CCC(N)=O)C\4(C)C)[C@@H](CCC(N)=O)[C@]\3(C)CC(N)=O)[C@@H](CCC(N)=O)[C@]2(C)CC(N)=O.[Co+3] [cobinamide]
8-pCPT-cGMP-induced VASP phosphorylation [2]: no effect
PAPA-NONOate-induced VASP phosphorylation [2]: prevented the increase in VASP phosphorylation; also recorded: prevented increases in VASP phosphorylation
growth of baby chicks ([3]; po): did inhibit chick growth
growth of baby chicks [3]: no effect on the growth of baby chicks
binding to transcobalamin II [4]: binds poorly
binding to serum albumin [5]: binds tightly to serum albumin
growth rate of KCN-treated cells [6]: restored their growth rate to normal
nitrite plus nitrate concentrations in medium [7]: significant decrease in the nitrite plus nitrate concentrations
rate of tubular secretion [8]: rapidly reduced tubular secretion, returning rates near to the basal state
restoration of methionine synthase apoenzyme activity [9]: can restore the methionine synthase apoenzyme to full activity
binding to haptocorrin [10]: binds tightly
reduction of combined nitrite and nitrate [11]: about 50%
growth inhibitory effects [12]: no growth inhibitory effects
concentration at which toxicity began to be observed [13]: about 50 μM
decrease of [14C]-propionic acid incorporation into protein [14]: about 50%
basal secretion rates [15]: no effect on basal secretion rates
resistance to KCN inhibition of tubular secretion [15]: significant resistance to the inhibitory effect of KCN; also recorded: almost complete reversal of the toxic effects of KCN
tubular secretion rates [15]: tubular secretion rates increased significantly
growth inhibitory effects [16]: no growth inhibitory effects
decrease of [14C]-formate incorporation into purine nucleotides [17]: about 50%
inhibition of in vivo methionine synthase activity [17]: minimal inhibition
release from the liver, t? ([18]; iv): ~150 h
liver retention [18]: retained more by the liver than cobalamin
methylmalonyl-CoA mutase activity in BHK cell extracts [19]: no effect
HCN exposure time without any significant increase in mortality [20]: up to 15 min
flies salvaged [20]: 94%
flies survived [20]: 65%
flies surviving / recovered by 1 h [20]: approximately 90%
mortality rate [20]: 18%
outcome of prolonged HCN exposure [20]: death of all flies
prevention of death [20]: as effective in preventing death under these conditions as it was when administered prior to cyanide exposure
methionine synthase activity in BHK cell extracts [21]: no effect
nitrite plus nitrate concentrations in medium [22]: significant decrease in the nitrite plus nitrate concentrations
reduction of LPS-stimulated tubular secretion rates compared to control flies [23]: about 50%
A23187-induced VASP phosphorylation [24]: significantly attenuated this effect
detrimental effect on the flies [25]: no apparent detrimental effect
toxicity to flies [25]: No toxicity
survival rate [26]: 65%
effect on oxygen consumption [27]: Neither cobinamide nor cobalamin alone had any effect on oxygen consumption
recovery of respiration, of control non-KCN-treated cells [27]: about 75%
absorption across the ileum [28]: can be absorbed across the ileum independently of intrinsic factor
not toxic to cultured mammalian cells up to [29]: at least 50 μM
inhibition of methionine synthase or methylmalonyl-CoA mutase [30]: nor did cobinamide inhibit the two mammalian cobalamin-dependent enzymes
toxic effects [30]: no apparent toxic effects

C/C1=C2/[N-][C@H]([C@H](CC(N)=O)[C@@]2(C)CCC(=O)NC[C@H](C)OP(=O)([O-])O[C@H]2[C@@H](O)[C@@H](n3cnc4cc(C)c(C)cc43)O[C@@H]2CO)[C@]2(C)N=C(/C(C)=C3N=C(/C=C4N=C1[C@@H](CCC(N)=O)C\4(C)C)[C@@H](CCC(N)=O)[C@]\3(C)CC(N)=O)[C@@H](CCC(N)=O)[C@]2(C)CC(N)=O.[Co+2] (stereo in doubt) [cobalamin, reference compound]
effect on NO scavenging by cobinamide, VASP phosphorylation [2]: no effect on NO scavenging by cobinamide
mean peak serum concentration [31]: about 650 μM
effect on NO scavenging by cobinamide, tubular fluid secretion [8]: no effect on NO scavenging by cobinamide
prevention of cobinamide effect on [14C]-propionic acid incorporation [14]: completely prevented
basal secretion rates [15]: no effect on basal secretion rates
resistance to KCN inhibition of tubular secretion [15]: significant resistance to the inhibitory effect of KCN; also recorded: intermediate degree of resistance to KCN
prevention of cobinamide effect on [14C]-formate incorporation [17]: completely prevented
flies salvaged [20]: 62%
flies survived [20]: 44%
mortality rate [20]: 55%
toxicity to flies [25]: No toxicity
survival rate [26]: 38%
effect on oxygen consumption [27]: Neither cobinamide nor cobalamin alone had any effect on oxygen consumption
recovery of respiration, of control non-KCN-treated cells [27]: 42%
